What follows are molecules tested against T1, Tyrosine-protein phosphatase non-receptor type 1 (Homo sapiens, UniProt P18031).
T1 sequence (P18031 whole entry): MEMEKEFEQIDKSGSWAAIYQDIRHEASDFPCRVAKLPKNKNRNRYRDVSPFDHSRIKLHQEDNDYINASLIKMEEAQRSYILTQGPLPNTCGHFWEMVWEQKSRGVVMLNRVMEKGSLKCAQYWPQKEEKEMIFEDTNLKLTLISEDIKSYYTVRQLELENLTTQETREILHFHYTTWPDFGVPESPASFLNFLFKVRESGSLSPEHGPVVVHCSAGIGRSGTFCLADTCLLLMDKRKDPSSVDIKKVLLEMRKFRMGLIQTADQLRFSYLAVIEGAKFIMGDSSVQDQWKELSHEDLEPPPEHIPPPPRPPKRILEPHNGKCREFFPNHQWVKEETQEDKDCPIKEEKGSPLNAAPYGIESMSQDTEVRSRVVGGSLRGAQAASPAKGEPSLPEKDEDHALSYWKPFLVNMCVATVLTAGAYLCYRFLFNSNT

IC50 | SMILES
62.7 µM | CC1(C)C=Cc2c(O)ccc(-c3cc4ccc(O)cc4o3)c2O1
64.9 µM | CC1(C)C=Cc2c(ccc(-c3cc4ccc(O)cc4o3)c2O)O1
74.1 µM | COc1ccc2cc(-c3ccc(O)cc3OC)oc2c1
13.6 µM | CC(C)=CCc1c(O)ccc(-c2cc3ccc(O)cc3o2)c1O [2'-O-DEMETHYLBIDWILLOL B]
17.5 µM | COc1cc(O)c(CC=C(C)C)cc1-c1cc2ccc(O)cc2o1 [ADDISOFURAN A]
15.7 µM | COc1cc(O)ccc1-c1cc2cc(CC=C(C)C)c(O)cc2o1 [ADDISOFURAN B]

From ChEMBL document CHEMBL1149531, “Inhibitory effect of 2-arylbenzofurans from Erythrina addisoniae on protein tyrosine phosphatase-1B” (Bioorg Med Chem Lett, 2007)
